Test results taken from patent publication US10815238B2, “Antimicrobial compounds and methods of making and using the same” (BIOVERSYS AG, priority 2013, dated 2020).

Tested on: Eschericia coli (E. coli) strain ATCC25922
Experiment: Standard microdilution assay, MIC against E. coli ATCC25922
Assay type: cell-based
Settings: Escherichia coli; E. coli strain ATCC25922, standard microdilution assay; cutoff 16 micrograms/mL; read-out: MIC E. Coli
Procedure: The in vitro activity of the compounds of the present invention can be determined. Antimicrobial testing is typically performed to determine the minimum inhibitory concentration (MIC). Minimum inhibitory concentrations (MICs) are determined by the microdilution method in a final volume of 100 μl according to protocols outlined by The Clinical and Laboratory Standards Institute (CLSI). Performance standards for reference strains are assessed within the same experimental design to maintain quality control. See, for example, Clinical Laboratory Standards Institute: Methods for dilution antimicrobial susceptibility tests for bacteria that grow aerobically M7-A8. Approved Standard-Eighth Edition. Wayne, Pa.: CLSI; December 2008; and Clinical Laboratory Standards Institute: Performance Standards for Antimicrobial Susceptibility Testing M100-S20; Approved Standard-Twentieth Edition. Wayne, Pa.: CLSI; June 2010.
The compounds of the present invention were tested for antimicrobial activity. The Compounds 1-582 were run against Eschericia coli (E. coli) strain ATCC25922 and Compounds 320-582 were run against Staphylococcus aureus (S. aureus) 11540 strain using a standard microdilution assay to determine minimum inhibitory concentrations (MICs). […] It will be recognized by one skilled in the art that the compounds can be assessed against other bacterial organisms and that the presentation of data for activity against Eschericia coli and Staphylococcus aureus are illustrative and in no way is intended to limit the scope of the present invention. The compounds of the present invention can be assayed against a range of other microorganisms depending upon the performance activity desired to be gathered. Furthermore, the “+” and “−” representation and the selection of a cutoff value of 16 micrograms/mL is also illustrative and in no way is intended to limit the scope of the present invention.

MIC	SMILES
< 16 µg/mL	C[C@H](N)CCCc1cc(-c2cc3cn(-c4ccc([C@@H](CF)NCCCNC(=N)N)cc4)c(=O)nc3[nH]2)cc(C(F)(F)F)c1 [Compound 97]
< 16 µg/mL	C[C@H](N)CCCc1cc(-c2cc3cn(-c4ccc([C@H](CCF)NCCCNC(=N)N)cc4)c(=O)nc3[nH]2)cc(C(F)(F)F)c1 [Compound 73]
< 16 µg/mL	C[C@H](N)CCCc1cc(OC(F)(F)F)c(F)c(-c2cc3cn(-c4ccc(C[C@H](N)CCCNC(=N)N)cc4)c(=O)nc3[nH]2)c1 [Compound 231]
> 16 µg/mL	C[C@H](N)CCCc1cc(SC(F)(F)F)cc(-c2cc3cn(-c4ccc(CNCc5nn[nH]n5)cc4)c(=O)nc3[nH]2)c1 [Compound 163]
> 16 µg/mL	C[C@H](N)CCCc1cc(SC(F)(F)F)cc(-c2cc3cn(-c4ccc(CNCc5c[nH]nn5)cc4)c(=O)nc3[nH]2)c1 [Compound 121]
< 16 µg/mL	N=C(N)NCCCNCc1ccc(-n2cc3cc(-c4cc(OC(F)(F)F)cc([C@H]5C[C@H](N)CCO5)c4)[nH]c3nc2=O)cc1 [Compound 35]
< 16 µg/mL	C[C@H](N)CCCc1cc(-c2cc3cn(-c4ccc([C@H](CO)NCCCNC(=N)N)cc4)c(=O)nc3[nH]2)cc(C(F)(F)F)c1 [Compound 108]
< 16 µg/mL	N=C(N)NCCCNCc1cccc(-n2cc3cc(-c4ccc(C(NC5CN(C(=N)N)C5)C(F)(F)F)cc4)[nH]c3nc2=O)c1 (centres unmarked) [Compound 89]
< 16 µg/mL	C[C@H](NCCCNC(=N)N)c1ccc(-n2cc3cc(-c4cc(SC(F)(F)F)cc([C@H](O)CC[C@@H](N)CO)c4)[nH]c3nc2=O)cc1 [Compound 110]
< 16 µg/mL	C[C@H](N)CCCc1cc(-c2cc3cn(-c4cccc(CCNCCCNC(=N)N)c4)c(=O)nc3[nH]2)cc(C(F)(F)F)c1 [Compound 62]
< 16 µg/mL	C[C@H](N)CC[C@@H](O)c1cc(-c2cc3cn(-c4ccc([C@H](C)NCCCNC(=N)N)cc4)c(=O)nc3[nH]2)cc(C(F)(F)F)c1 [Compound 21]
< 16 µg/mL	C[C@H](N)CCCc1cc(-c2cc3cn(-c4ccc([C@H](C)NCCCNC(=N)N)cc4)c(=O)nc3[nH]2)cc([S+]([O-])C(F)(F)F)c1 (some centres unmarked) [Compound 164]
< 16 µg/mL	C[C@H](N)CCCc1cc(SC(F)(F)F)cc(-c2cc3cn(-c4ccc([C@@H](CCN)NCCCNC(=N)N)cc4)c(=O)nc3[nH]2)c1 [Compound 7]
< 16 µg/mL	C[C@H](N)CC[C@H](O)c1cc(SC(F)(F)F)cc(-c2cc3cn(-c4ccc([C@H](C)NCCCNC(=N)N)cc4)c(=O)nc3[nH]2)c1 [Compound 68]
< 16 µg/mL	N=C(N)NCCCNCc1ccc(-n2cc3cc(-c4ccc(C(=O)NCc5csc(N6CCOCC6)n5)cc4)[nH]c3nc2=O)cc1 [Compound 49]
> 16 µg/mL	C[C@H](N)CCCc1cc(SC(F)(F)F)cc(-c2cc3cn(-c4ccc(CNCc5cnc(N)s5)cc4)c(=O)nc3[nH]2)c1 [Compound 159]

Continued, compound first:

SMILES	MIC
CC(C)[C@H](N)CCNCc1ccc(-n2cc3cc(-c4cc(CCC[C@H](C)N)cc(Cl)c4F)[nH]c3nc2=O)cc1 [Compound 155]	< 16 µg/mL
C[C@H](N)CCCc1cc(SC(F)(F)F)cc(-c2cc3cn(-c4ccc(CNCc5ccc(=O)[nH]c5)cc4)c(=O)nc3[nH]2)c1 [Compound 147]	> 16 µg/mL
C[C@H](N)CCCc1cc(Cl)c(F)c(-c2cc3cn(-c4ccc([C@H](C)NCC[C@H](CCC#N)NC(=N)N)cc4)c(=O)nc3[nH]2)c1 [Compound 314]	< 16 µg/mL
C[C@H](N)CCCc1cc(Cl)c(F)c(-c2cc3cn(-c4ccc([C@H](C)NCC[C@@H](CNCc5nccs5)NC(=N)N)cc4)c(=O)nc3[nH]2)c1 [Compound 272]	< 16 µg/mL
C[C@H](N)CCCc1cc(Cl)c(F)c(-c2cc3cn(-c4ccc([C@H](C)NCC[C@@H](CO)NC(=N)N)cc4)c(=O)nc3[nH]2)c1 [Compound 264]	< 16 µg/mL
C[C@H](N)CCCc1cc(Cl)c(F)c(-c2cc3cn(-c4ccc([C@H](C)NCC[C@@H](CCO)NC(=N)N)cc4)c(=O)nc3[nH]2)c1 [Compound 247]	< 16 µg/mL
COc1ccc(Cn2cc(C[C@H](NCCCNC(=N)N)c3ccc(-n4cc5cc(-c6cc(CCC[C@H](C)N)cc(SC(F)(F)F)c6)[nH]c5nc4=O)cc3)nn2)cc1 [Compound 43]	< 16 µg/mL
C[C@H](N)CCCc1cc(OC(F)(F)F)c(F)c(-c2cc3cn(-c4ccc([C@H](C)NCC[C@H](CCC#N)NC(=N)N)cc4)c(=O)nc3[nH]2)c1 [Compound 315]	< 16 µg/mL
C=CCNCCCN[C@@H](C)c1ccc(-n2cc3cc(-c4cc(CCC[C@H](C)N)cc(Cl)c4F)[nH]c3nc2=O)cc1 [Compound 213]	< 16 µg/mL
C[C@H](N)CCCc1cc(OC(F)(F)F)c(F)c(-c2cc3cn(-c4ccc([C@H](C)N[C@H](C)CCNC(=N)N)cc4)c(=O)nc3[nH]2)c1 [Compound 233]	< 16 µg/mL
C[C@H](N)CCCc1cc(Cl)c(F)c(-c2cc3cn(-c4ccc([C@H](C)NCCCN(C)C(=N)N)cc4)c(=O)nc3[nH]2)c1 [Compound 205]	< 16 µg/mL
C[C@H](N)CCCc1cc(Cl)c(F)c(-c2cc3cn(-c4ccc(CNCCC(N)C(F)(F)F)cc4)c(=O)nc3[nH]2)c1 (some centres unmarked) [Compound 172]	> 16 µg/mL
C[C@H](N)CCCc1cc(Cl)c(F)c(-c2cc3cn(-c4ccc([C@H](C)NCC[C@@H](CCc5ccccc5)NC(=N)N)cc4)c(=O)nc3[nH]2)c1 [Compound 258]	< 16 µg/mL
C[C@H](N)CCCc1cc(OC(F)(F)F)c(F)c(-c2cc3cn(-c4ccc([C@H](C)NCC[C@H](Cc5c[nH]nn5)NC(=N)N)cc4)c(=O)nc3[nH]2)c1 [Compound 269]	< 16 µg/mL
C[C@H](N)CCCc1cc(Cl)c(F)c(-c2cc3cn(-c4ccc(CNCC[C@@H](CO)NC(=N)N)cc4)c(=O)nc3[nH]2)c1 [Compound 191]	< 16 µg/mL
C[C@H](N)CCCc1cc(OC(F)(F)F)c(F)c(-c2cc3cn(-c4ccc([C@H](C)NCC[C@@H](Cc5c[nH]nn5)NC(=N)N)cc4)c(=O)nc3[nH]2)c1 [Compound 268]	< 16 µg/mL
C[C@H](N)CCCc1cc(Cl)c(F)c(-c2cc3cn(-c4ccc([C@H](C)NCC[C@H](C)NC(=N)N)cc4)c(=O)nc3[nH]2)c1 [Compound 222]	< 16 µg/mL

SMILES	MIC
C[C@H](N)CCCc1cc(Cl)c(F)c(-c2cc3cn(-c4ccc([C@H](C)NCC[C@H](CCO)NC(=N)N)cc4)c(=O)nc3[nH]2)c1 [Compound 244]	< 16 µg/mL
C[C@H](N)CCCc1cc(Cl)cc(-c2cc3cn(-c4ccc([C@H](C)NCCCNC(=N)N)cc4)c(=O)nc3[nH]2)c1 [Compound 27]	< 16 µg/mL
C[C@H](N)CCCc1cc(OC(F)(F)F)c(F)c(-c2cc3cn(-c4ccc([C@H](C)NCC[C@@H](CCCN)NC(=N)N)cc4)c(=O)nc3[nH]2)c1 [Compound 283]	< 16 µg/mL
C[C@H](NCCCNC(=N)N)c1ccc(-n2cc3cc(-c4cc(CCC[C@H](C)NC(=O)CN)cc(Cl)c4F)[nH]c3nc2=O)cc1 [Compound 72]	< 16 µg/mL
CC[C@H](N)CCNCc1ccc(-n2cc3cc(-c4cc(CCC[C@H](C)N)cc(Cl)c4F)[nH]c3nc2=O)cc1 [Compound 152]	< 16 µg/mL
C[C@H](NCCCNC(=N)N)c1ccc(-n2cc3cc(-c4cc(SC(F)(F)F)cc([C@H](O)CC[C@H](N)CCO)c4)[nH]c3nc2=O)cc1 [Compound 132]	< 16 µg/mL
COc1ccc(Cn2cc(C[C@H](NCCCNC(=N)N)c3ccc(-n4cc5cc(-c6cc(CCC[C@H](C)N)cc(Cl)c6F)[nH]c5nc4=O)cc3)nn2)cc1 [Compound 41]	< 16 µg/mL
C[C@H](N)CCCc1cc(Cl)c(F)c(-c2cc3cn(-c4ccc(CNCc5ccncc5)cc4)c(=O)nc3[nH]2)c1 [Compound 127]	> 16 µg/mL
C[C@H](N)CCCc1cc(OC(F)(F)F)c(F)c(-c2cc3cn(-c4ccc([C@H](C)NCC[C@@H](CCCO)NC(=N)N)cc4)c(=O)nc3[nH]2)c1 [Compound 240]	< 16 µg/mL
C[C@H](N)CCCc1cc(Cl)c(F)c(-c2cc3cn(-c4ccc(C[C@@H](CCCN)NC(=N)N)cc4)c(=O)nc3[nH]2)c1 [Compound 229]	< 16 µg/mL
C[C@H](N)CCCc1cc(SC(F)(F)F)cc(-c2cc3cn(-c4ccc([C@@H](CCc5ccncc5)NCCCNC(=N)N)cc4)c(=O)nc3[nH]2)c1 [Compound 86]	< 16 µg/mL
C[C@H](N)CCCc1cc(Cl)c(F)c(-c2cc3cn(-c4ccc([C@H](C)N[C@H](C)CCNC(=N)N)cc4)c(=O)nc3[nH]2)c1 [Compound 225]	< 16 µg/mL
C[C@H](N)CCCc1cc(Cl)c(F)c(-c2cc3cn(-c4ccc([C@H](C)NCC[C@@H](CCCO)NC(=N)N)cc4)c(=O)nc3[nH]2)c1 [Compound 239]	< 16 µg/mL
C[C@H](N)CCCc1cc(Cl)c(F)c(-c2cc3cn(-c4ccc([C@@H](C)NCCCN)cc4)c(=O)nc3[nH]2)c1 [Compound 318]	< 16 µg/mL
C=C[C@H](CCNCc1ccc(-n2cc3cc(-c4cc(CCC[C@H](C)N)cc(Cl)c4F)[nH]c3nc2=O)cc1)NC(=N)N [Compound 180]	< 16 µg/mL
C[C@H](N)CCCc1cc(Cl)c(F)c(-c2cc3cn(-c4ccc(CNCc5cnc(N)s5)cc4)c(=O)nc3[nH]2)c1 [Compound 158]	> 16 µg/mL
COC(=O)C[C@H](CCN[C@@H](C)c1ccc(-n2cc3cc(-c4cc(CCC[C@H](C)N)cc(Cl)c4F)[nH]c3nc2=O)cc1)NC(=N)N [Compound 280]	< 16 µg/mL
